The numbers were not newly measured in patent publication US4632934A, “Imidazole derivatives and pharmaceutical use thereof” (Kissei Pharmaceutical Co., Ltd., priority 1978, dated 1986), which cites them from elsewhere.

This data set deals with thromboxane synthetase. The conditions noted are these: prior art literature.
As to `c1c[nH]cn1` [imidazole], the “inhibitory effect on thromboxane synthetase (in words)” value (from here on “inhibitory effect”) is “very weak inhibitory effect”.

For `CCCCCCCCCn1ccnc1` [1-nonylimidazole], the “inhibitory effect” value is “strong inhibitory effect”.

In the case of `c1ccc(Cn2ccnc2)cc1` [1-benzylimidazole], the “inhibitory effect” value is “strong inhibitory effect”.

With `CCCCCCCCCCn1ccnc1` [1-decylimidazole], the “inhibitory effect” value is “strong inhibitory effect”.

Take `CC(C)c1ccccc1-n1ccnc1` [1-(2-isopropylphenyl)imidazole]: the “inhibitory effect” value is listed as “strong inhibitory effect”.
